Each block holds one compound with its values, some of them ahead of it.
Tests used:
[1] = biological target: T1, D-2-hydroxyglutarate dehydrogenase (D-2-HGDH) (Homo sapiens, UniProt Q8N465); test: crystal structure ([…] Å); SPR with DTT-treated protein (reduced FAD); no measurable binding to the untreated protein
T1 construct: gene D2HGDH
T1 sequence (Q8N465 51-521): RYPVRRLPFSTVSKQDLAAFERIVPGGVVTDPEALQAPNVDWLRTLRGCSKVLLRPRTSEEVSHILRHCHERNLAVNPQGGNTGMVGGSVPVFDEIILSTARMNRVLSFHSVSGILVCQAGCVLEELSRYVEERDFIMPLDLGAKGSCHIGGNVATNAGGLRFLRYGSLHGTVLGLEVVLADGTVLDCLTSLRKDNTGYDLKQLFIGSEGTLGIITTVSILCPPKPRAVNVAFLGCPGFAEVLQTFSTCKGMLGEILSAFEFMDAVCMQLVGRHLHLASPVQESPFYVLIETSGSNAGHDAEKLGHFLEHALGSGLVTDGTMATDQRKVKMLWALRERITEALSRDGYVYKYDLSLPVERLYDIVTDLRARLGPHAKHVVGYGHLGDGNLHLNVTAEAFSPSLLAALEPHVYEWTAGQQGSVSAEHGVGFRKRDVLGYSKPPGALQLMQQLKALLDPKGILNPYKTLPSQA

[2] = biological target: T1, D-2-hydroxyglutarate dehydrogenase (D-2-HGDH); test: crystal structure ([…] Å), SPR, enzyme kinetics; format: binding
[3] = biological target: T1, D-2-hydroxyglutarate dehydrogenase (D-2-HGDH); test: crystal structure ([…] Å), SPR, enzyme kinetics; format: binding; remark: listed apart in the source
[4] = biological target: T1, D-2-hydroxyglutarate dehydrogenase (D-2-HGDH); test: crystal structure ([…] Å), SPR, enzyme kinetics; format: binding; remark: listed apart in the source

Structure (SMILES): O=C(O)CCC(=O)C(=O)O [2-OG, 2-oxoglutarate]
Kd [1]: 7000 µM

Kd [2]: 149 µM
Structure (SMILES): O=C(O)CC[C@@H](O)C(=O)O [D-2-HG, D-2-hydroxyglutarate]

Kd [3]: 1620 µM
Structure (SMILES): C[C@@H](O)C(=O)O [D-LAC, D-lactate]

Kd [4]: 799 µM
Structure (SMILES): O=C(O)C[C@@H](O)C(=O)O [D-MAL, D-malate]

From article PMC7801405, “Structure, substrate specificity, and catalytic mechanism of human D-2-HGDH and insights into pathogenicity of disease-associated mutations” (Cell Discovery, 2021)
